These results are taken from EP2072521A1, “Octahedral metal (III) polypyridyl complexes and their use in prevention and treatment of cancer” (Freie Universität Berlin, priority 2007, dated 2009).

Data set [1] concerns MCF-7 breast cancer. Nature of the data set: Antiproliferative effects, crystal violet staining, MCF-7 cells. The data set is classed as cell-based, human. How it is done:
(§1) MCF-7 breast cancer and HT-29 human colon carcinoma cells were maintained in 10 % (v/v) fetal calf serum containing cell culture medium (minimum essential eagle supplemented with 2.2 g NaHCO3, 110 mg/L sodium pyruvate and 50 mg/L gentamicin sulfate adjusted to pH 7.4) at 37°C/5 % CO2 and passaged twice a week according to standard procedures. The antiproliferative effects of Rh1a - Rh5a were determined by an established procedure. Cells were suspended in cell culture medium (MCF-7: 10000 cells/mL, HT-29: 2850 cells/mL), and 100 µL aliquots thereof were plated in 96 well plates and incubated at 37°C/5 % CO2 for 72 h (MCF-7) or 48 h (HT-29). Stock solutions of the compounds in DMSO were freshly prepared and diluted with cell culture medium to the desired concentrations (final DMSO concentration: 0.1 % v/v). The medium in the plates was replaced with the medium containing the compounds in graded concentrations (six replicates). After further incubation for 96 h (MCF-7) or 72 h (HT-29) the cell biomass was determined by crystal violet staining and the IC50 values were established as those concentrations causing 50 % inhibition of cell proliferation. Results were calculated from 2 - 3 independent experiments. The results are summarized in Tab. 1 and Fig. 4. Table 1 IC50 values (µM) for the complexes mer-[RhCl3(DMSO)(pp)] Rh1a - Rh5a
(§2) The antiproliferative effects of the compounds Ir1a - Ir5a were determined as described in Example 2.

In data set [2] the test system is HT-29 human colon carcinoma cells. Nature of the data set: Antiproliferative effects, crystal violet staining, HT-29 cells. The data set is classed as cell-based. How it is done:
as §1, §2

The test system of the next data set is MCF-7 cells. Nature of the data set: Cellular uptake of iridium (GF-AAS), MCF-7 cells. The data set is classed as cell-based, human. Particulars: 6 h; for MCF-7 uptake 10 µM: 10 µM complex, 0.0: value below the detection limit; for MCF-7 uptake 100 µM: 100 µM complex. How it is done:
(§3) For cellular uptake studies, HT-29 and MCF-7 cells were grown until at least 70 % confluency in 175 cm^2 cell culture flasks. Stock solutions of complexes Ir1a - Ir5a in DMSO were freshly prepared and diluted with cell culture medium to the desired concentrations (final DMSO concentrations: 0.1 % v/v, final complex concentration: 10 or 100 µM). The cell culture medium of the cell culture flasks was replaced with 10 mL of the cell culture medium solutions containing Ir1a - Ir5a (10 µM or 100 µM) and the flasks were incubated for 6 h at 37°C/5 % CO2. The cell pellets were isolated, resuspended in 1 - 5 mL […], lysed by using a sonotrode and approximately diluted using twice distilled water. The iridium content of the samples was determined by graphite furnace atomic absorption spectroscopy (GF-AAS) and the protein content of separate aliquots by the Bradford method. To correct for matrix effects in GF-AAS measurements, samples and standards were adjusted to the same protein concentration by dilution with twice distilled water. Prior to GF-AAS analysis 20 µL triton X-100 (1 %) and 20 µL hydrochloric acid were added to each 200 µL sample of the cell suspensions. Cellular uptake was expressed as ng iridium per mg cell protein for data obtained from 3 independent experiments. Conversion of the ng iridium/mg protein value to the micromolar cellular concentration was performed as described previously.
(§4) A Vario 6 graphite furnace atomic absorption spectrometer (Analytik Jena) was employed for the lr quantification using a wavelength of 208.9 nm with a bandpass of 0.5 nm. A deuterium lamp was used for background correction. Matrix containing standards were obtained by addition of an iridium stock solution (1 mg/mL lr in 5 % HCl). 18 % hydrochloric acid solution was employed as a modifier. Probes were injected at a volume of 25 µL into graphite tubes. The detection limit for the method was 3.8 µg Ir L^-1. The mean AUC (area under curve) absorptions of duplicate injections were used throughout the study.

A further data set deals with HT-29. Kind of data set: Cellular uptake of iridium (GF-AAS), HT-29 cells. Type of data set: cell-based, human. Particulars: 6 h, 0.0: value below the detection limit; for HT-29 uptake 10 µM: 10 µM complex; for HT-29 uptake 100 µM: 100 µM complex. How it is done:
as §3, §4

A further data set has as its system tumour cell lines. Particulars: references [7, 8]; cited from earlier work.
The conditions of data set [3]: references [3], [4]; cited from earlier work.
For data set [4], the system named is MCF-7 breast cancer. Conditions: references [5, 6]; cited from earlier work.
The test system of data set [5] is HT-29 human colon carcinoma cells. Conditions: references [5, 6]; cited from earlier work.
The subject of data set [6] is A 2780 (ovarian carcinoma). Conditions: Mestroni et al. [1]; cited from earlier work.
A further data set deals with LoVo (colon carcinoma). Particulars: Mestroni et al. [1]; cited from earlier work.
For the next data set, the system named is Calu (lung carcinoma). Particulars: Mestroni et al. [1]; cited from earlier work.
The next data set has as its system mouse P 388 leukemia. Conditions: reference [2]; cited from earlier work.
Data set [7] can be described thus: Stability and isomerization in solution (1H NMR). Type of data set: physicochemical. Conditions: in DMSO.
Where [8] appears, read: Table 1, 96 h incubation, 2 - 3 independent experiments, spread in parentheses.
Where [9] appears, read: Table 2, determined as described in Example 2.
Where [10] appears, read: Table 1, 72 h incubation, 2 - 3 independent experiments, spread in parentheses.

Like-named read-outs stand apart in the source and are kept apart here.

The IC50 is the concentration needed to halve the response being measured. Turning to `N.N.[Cl][Pt][Cl]` [Cisplatin, reference compound], the IC50 in the data set on MCF-7 breast cancer [1] (setting [8]) amounted to 2000 nM; in the data set with MCF-7 breast cancer [1] (setting [9]), 2000 nM; in data set [2] (setting [10]), 7000 nM; in [2] (setting [9]), 7000 nM.
`CO.C[S+](C)(=O)[Ir-3]1([Cl])([Cl])([Cl])[n+]2cccc3ccc4ccc[n+]1c4c32.O` [Ir2a, fac-[IrCl3(DMSO)(phen)]·CH3OH·H2O] showed an IC50 in the data set on MCF-7 breast cancer [1] (setting [9]) of 4600 nM. Also, the IC50 in data set [2] (setting [9]) came to 4600 nM. Moreover, in the data set with MCF-7 cells, the “MCF-7 uptake 10 µM” value was 0.0 ng Ir/mg protein and the “MCF-7 uptake 100 µM” value is given as 74.4(13.5) ng Ir/mg protein. Besides, in the data set with HT-29, the “HT-29 uptake 10 µM” value was determined as 0.0 ng Ir/mg protein and the “HT-29 uptake 100 µM” value was 21.2(5.2) ng Ir/mg protein.
As to `[Cl][Ir-]([Cl])([Cl])[Cl].c1c[nH+]c[nH]1.c1c[nH]cn1.c1c[nH]cn1` [[ImH][trans-IrCl4(Im)2]], the biological activity entry in the data set with tumour cell lines is “biologically inactive”.
`c1ccc2nc3c4cccnc4c4ncccc4c3nc2c1` [dppz, dipyrido[3,2-a:2',3'-c]phenazine, reference compound]: the IC50 with MCF-7 breast cancer [1] (Homo sapiens, MCF7, Table 1, 96 h incubation, 2 - 3 independent experiments, spread in parentheses) was found to be 800 nM; in the data set on MCF-7 breast cancer [1] (Homo sapiens, MCF7, Table 2, determined as described in Example 2) it was 800 nM; in data set [2] (Homo sapiens, HT-29, Table 1, 72 h incubation, 2 - 3 independent experiments, spread in parentheses), 1800 nM; in data set [2] (Homo sapiens, HT-29, Table 2, determined as described in Example 2), 1800 nM.
Consider `C1CSCCSCCN1.[Cl][Rh]([Cl])[Cl]` [fac-[RhCl3(9-[ane]-NS2)]], for which, in data set [3], the cytotoxicity entry is “exhibit cytotoxicity”.
Take `[Cl][Rh]([Cl])[Cl].c1ccc(-c2cccc(-c3ccccn3)n2)nc1` [mer-[RhCl3(tpy)]]: the cytotoxicity result in [3] is recorded as “exhibit cytotoxicity”.
As to “[(DMSO)2H] [[(DMSO)2H] [trans-IrCl4(DMSO)2]]”, in the data set on tumour cell lines, the biological activity entry is “biologically inactive”.
For the molecule “[(η^5-C5Me5)IrCl(dppz)](CF3SO3) [compound 6, reference compound]”, the IC50 in the data set with MCF-7 breast cancer [1] (setting [9]) is 2300 nM; in data set [2] (setting [9]), 7400 nM; in the data set on MCF-7 breast cancer [4] it was 2300 nM; in data set [5] it was 7400 nM. Also, the “HT-29 uptake 10 µM” value with HT-29 was 70.4(1.0) ng Ir/mg protein.
As for “[(η^5-C5Me5)Ir{(Me2N)2CS}(dppn)](CF3SO3) [compound 7, reference compound]”, the IC50 turned out to be 170 nM with MCF-7 breast cancer [1] (setting [9]) and 410 nM in data set [2] (setting [9]). Also, the “HT-29 uptake 10 µM” value with HT-29 is listed as 149.6(7.8) ng Ir/mg protein.
In the case of [ImH][trans-IrCl4(DMSO)(Im)], in the data set with tumour cell lines, the biological activity entry is “biologically inactive”.
For [Rh(Im)(tpy)2]Cl·3H2O, the cytotoxicity entry in data set [3] is “exhibit cytotoxicity”.
Molecule fac-[IrC/3(DMSO)(dppz)]·2H2O [Ir4a] gave an IC50 in the data set on MCF-7 breast cancer [1] (setting [9]) of 800 nM. This molecule also registered an IC50 in data set [2] (setting [9]) of 1500 nM. In addition, in the data set with MCF-7 cells, the “MCF-7 uptake 10 µM” value is reported as 3.3(3.3) ng Ir/mg protein and the “MCF-7 uptake 100 µM” value is given as 644.0(149.1) ng Ir/mg protein. In the data set with HT-29, the “HT-29 uptake 10 µM” value is listed as 11.9(3.0) ng Ir/mg protein and the “HT-29 uptake 100 µM” value is 1664.4(473.1) ng Ir/mg protein.
Consider fac-[IrC/3(DMSO)(dpq)·3H2O [Ir3a], for which the IC50 in the data set on MCF-7 breast cancer [1] (setting [9]) is 5500 nM. Further, inhibition in data set [2] (setting [9]) was half-maximal at 6100 nM (IC50). Besides, in the data set with MCF-7 cells, the “MCF-7 uptake 10 µM” value is 0.3(0.3) ng Ir/mg protein and the “MCF-7 uptake 100 µM” value is 640.5(148.9) ng Ir/mg protein. Also, in the data set on HT-29, the “HT-29 uptake 10 µM” value was determined as 0.0 ng Ir/mg protein and the “HT-29 uptake 100 µM” value is recorded as 167.8(3.4) ng Ir/mg protein.
In turn, fac-[IrCl3(DMSO)(bpy)·2H2O [Ir1a] returned an IC50 in the data set on MCF-7 breast cancer [1] (setting [9]) of more than 100000 nM. In data set [2] (setting [9]), this molecule registered an IC50 of more than 100000 nM. Further, in the data set on HT-29, the “HT-29 uptake 10 µM” value was found to be 0.0 ng Ir/mg protein and the “HT-29 uptake 100 µM” value was 0.0 ng Ir/mg protein.
Molecule fac-[IrCl3(DMSO)(dppn)]·2CH3OH [Ir5a] gave an IC50 in the data set on MCF-7 breast cancer [1] (setting [9]) of 210 nM. For the same molecule, the IC50 in data set [2] (setting [9]) is 1300 nM. In addition, in the data set on MCF-7 cells, the “MCF-7 uptake 10 µM” value is listed as 19.3(0.8) ng Ir/mg protein and the “MCF-7 uptake 100 µM” value is 180.8(2.7) ng Ir/mg protein. In the data set with HT-29, the “HT-29 uptake 10 µM” value was 37.4(8.9) ng Ir/mg protein and the “HT-29 uptake 100 µM” value was 226.1(26.6) ng Ir/mg protein.
As for mer,cis-[RhCl3(DMSO-κS)(Im)2], the IC50 is more than 200000 nM in [6], 40000 ± 15000 nM with LoVo (colon carcinoma) and more than 200000 nM in the data set with Calu (lung carcinoma).
With mer,cis-[RhCl3(DMSO-κS)(py)2], the “Activity against mouse P 388 leukemia” value in the data set on mouse P 388 leukemia is “Activity”.
As to mer-[RhCl3(DMSO)(bpy)] [Rh1a], the IC50 was found to be 4000 nM in the data set on MCF-7 breast cancer [1] (setting [8]) and 1900 nM in data set [2] (setting [10]). In addition, the isomerization result in data set [7] was “isomerize rapidly to a mixture of fac- and mer-isomers”.
As for mer-[RhCl3(DMSO)(dppn)] [Rh5a], the IC50 with MCF-7 breast cancer [1] (setting [8]) was 51 nM; in data set [2] (setting [10]) it was 70 nM.
Taken in the same sequence, the figures for mer-[RhCl3(DMSO)(dppz)]·1.5H2O [Rh4a] were 95 nM and 73 nM.
The matching figures for mer-[RhCl3(DMSO)(dpq)] [Rh3a]: 79 nM and 69 nM.
With mer-[RhCl3(DMSO)(phen)]·H2O [Rh2a], the IC50 in the data set on MCF-7 breast cancer [1] (setting [8]) came to 400 nM; in data set [2] (setting [10]) it was 190 nM. Moreover, the isomerization result in [7] is “isomerize rapidly to a mixture of fac- and mer-isomers”.
